From article PMC11061149, “Protein mimetic 2D FAST rescues alpha synuclein aggregation mediated early and post disease Parkinson’s phenotypes” (Nature Communications, 2024) come the findings set out here.

Assay [1] has as its target T1, α-Synuclein (αS) aggregation (Homo sapiens, UniProt P37840).
T1 construct: made in house; host or cells: E. coli BL21(DE3)
In words: Thioflavin T (ThT) dye-based αS aggregation assay (de novo). It is filed as biochemical. Conditions: for ThT intensity relative to Synuclein alone (=1), Average / ThT intensity relative to Synuclein alone (=1), Trial 1-3: 100 µM αS, four days, equimolar; for ThT intensity relative to Synuclein alone (=1), Trial 1-3 / Relative ThT intensity of αS aggregation: individual trials; for remaining activity at 100 µM: 96 h, pH 6.5, 100 μM αS, 1×PBS pH 6.5, four days, ligand:αS equimolar, read-out: ThT signal/intensity relative to αS alone (100%); for ThT intensity (raw), individual trials: αS aggregation after four days, NS132 derivatives equimolar (Fig. 2r); for Relative ThT intensity of αS aggregation, Average / Relative ThT intensity of αS aggregation: Synuclein alone about 1. How it is done: We used a 2D FAST approach in OPs to identify potent antagonists of the aggregation of αS. In this approach, we start with a library of monopyridyls with different functional groups. The library of monopyridyls was synthesized using 2-chloro-6-methyl-3-nitropyridine as a common precursor, which was treated with primary alcohols with diverse side chain functionalities via a one-pot reaction (Fig. 1B, a and see Supplementary information for synthetic details). […] We selected the side chains containing hydrophobic, polar, positively charged, and negatively charged functional groups, which mimic the side chains of the amino acids (Fig. 1C). […] The monopyridyl library was screened against the aggregation of 100 μM αS at an equimolar ratio using Thioflavin T (ThT) dye-based aggregation assay (Fig. 1B, b). […] The chloro-dipyridyl was reacted with a library of primary amines/thiols to synthesize a library of dipyridyls (Fig. 1B, e) using a one-pot reaction. […] However, a few dipyridyls required column chromatography to separate them from the starting material side chains because of their very high boiling point (7 out of 21 dipyridyls required column, Supplementary Fig. 1). […]
Aggregation Kinetics were measured according to a previously described protocol. […] The solutions were placed in a ThermoMixer (Eppendorf, Hamberg, Germany) at 37 °C with constant shaking at 1300 rpm (rpm). At different time points, 5 μL aliquots of each αS solution were added to 95 μL PBS containing 50 μM Thioflavin T (ThT) dye in a Costar black 96 well plate (Corning Inc., Kennebunk, ME). ThT fluorescence intensity was measured (λex = 450 nm and λem = 490 nm) on an Infinite M200PRO plate reader (Tecan, Männedorf, Switzerland), and plotted against time to give a sigmoidal curve typical of amyloid aggregation. For the single point ThT aggregation, 100 μM αS, in the absence and presence of ligands, was aggregated under the described conditions and the ThT fluorescence was reported at 96 h. The reported ThT intensity values are the average of each experiment conducted in triplicate, with the error bars representing the standard deviations or standard error of the mean (s.e.m.) as described in the main manuscript.

A further assay deals with T2, αS aggregation (Homo sapiens, UniProt P37840).
T2 construct: made in house; host or cells: E. coli BL21(DE3)
In words: SDS-PAGE gel shift assay of soluble and insoluble αS fractions. It is filed as biochemical. The settings on record: for Total (αS, SDS-PAGE gel shift), Average: average of 3 trials; for Total (αS, SDS-PAGE gel shift), Average / Total (αS, SDS-PAGE gel shift), Trial 1-3: sheet S9D; for Total (αS, SDS-PAGE gel shift), Trial 1-3 / αS band intensity, Total: individual trials. From the text:
The inhibition of αS aggregation by NS41 was also confirmed by TEM images, which show an abundance (Supplementary Fig. 3a) and low amount (Supplementary Fig. 3b) of αS fibers in the absence and presence of NS41, respectively. We used SDS-PAGE (Sodium dodecyl sulfate polyacrylamide gel electrophoresis) as a complementary assay to validate ThT results and to further characterize the antagonist activity of the monopyridyls against αS aggregation. We used a total of four monopyridyls with varying antagonist activity against αS aggregation for the SDS-PAGE assay. The solutions of αS (±monopyridyls) were centrifuged and the soluble and insoluble fractions were subjected to SDS-PAGE analysis as reported earlier (Fig. 2d, Supplementary Fig. 4a, see details in methods section). The band intensities of the gels in SDS-PAGE assay were quantified using ImageJ software. In the absence of ligands, ~12% of αS was found in the soluble fraction and the rest was found in the insoluble fraction (Fig. 2d, Supplementary Fig. 4a, b). In the presence of NS41 at molar ratios of 1:1 and 2:1 (NS41:αS), 48% and 73% of αS protein were found in the soluble fraction, respectively, and the rest of αS protein was found in the insoluble fraction (Fig. 2d, Supplementary Fig. 4a, b). […] The antagonist activity of the monopyridyls corroborated well from both ThT and the SDS-PAGE assays (Fig. 2a–d, Supplementary Fig. 4a, b). The higher the antagonist activity of monopyridyls against αS aggregation, the lower the ThT intensity and the higher the amount of αS remained in the soluble fraction (Fig. 2a–d, Supplementary Fig. 4a, b). […] It is important to note that NS41 contains a carboxyl (COOH) functional group side chain. […] We have also shown in that work that the foldamer binds to the N-terminus of αS because of its negatively charged COOH functional group interaction with the positively charged lysine residues of αS[24]. […] Additionally, we have also shown that the OPs with the COOH functional group are very effective inhibitors of aggregation of other amyloid proteins that contain lysine amino acid via the formation of salt bridges[30]–[34].
An αS solution (100 µM) was prepared in PBS with or without ligands and shaken ([…], 37 °C) until the fluorescence plateaued, as observed using the ThT aggregation assay, indicative of the aggregation of αS as a control (four days for most experiments unless otherwise mentioned). The solutions were separated into soluble and insoluble fractions by centrifugation at 22,000 × g for 20 min. The fractions were diluted in 2×Laemmli protein sample loading buffer (Containing 2.1% SDS, Bio-rad, Hercules, CA), boiled at 95 °C for 5 min, and ran on a 12% Mini-PROTEAN precast protein gel (Bio-rad, Hercules, CA). The gel was visualized using ChemiDoc MP Imaging System (Bio-rad, Hercules, CA) and band intensity was quantified using Image Lab image acquisition and analysis software (Bio-rad, Hercules, CA). Densitometry values were averaged from three technical replicates and reported with the error bars representing their standard deviations.
A general note: In EMSA bound probe runs differently from free probe, usually more slowly.

“And” between values parts separate entries of the source, which are not always exact repeats. Identical values can stand only once.

As for `Cc1ccc(NC(=O)c2ccc(NC(=O)c3ccc([N+](=O)[O-])c(NCCc4ccc(O)cc4)n3)c(NCC3CCCCC3)n2)c(OCC(=O)O)n1` [NS168], in assay [1], the “ThT intensity relative to Synuclein alone (=1), Average” value is listed as 0.02443; the “ThT intensity relative to Synuclein alone (=1), Trial 1-3” value is 0.02302 and 0.02387 and 0.02641; the remaining activity at 100 µM worked out at 2.7%.
For `Cc1ccc(NC(=O)c2ccc(NC(=O)c3ccc([N+](=O)[O-])c(NCCc4c[nH]c5ccccc45)n3)c(NCC3CCCCC3)n2)c(OCC(=O)OC(C)(C)C)n1` [NS132-P], the “amount of αS in the insoluble fraction” value at αS aggregation (100 µM αS, four days, equimolar) turned out to be 84%. On αS aggregation (NS132-P 0.5 eq.), the “Total (αS, SDS-PAGE gel shift), Average” value is given as 0.8767; the “Total (αS, SDS-PAGE gel shift), Trial 1-3” value is 0.83 and 0.85 and 0.95. Besides, on αS aggregation (NS132-P 1.0 eq.), the “Total (αS, SDS-PAGE gel shift), Average” value stood at 1.02; the “Total (αS, SDS-PAGE gel shift), Trial 1-3” value is 1.069 and 1.01 and 0.98. Moreover, in assay [1], the remaining activity at 100 µM is 80%; the “ThT intensity (raw), individual trials” value is 15241 and 16712 and 15019.
For `Cc1ccc([N+](=O)[O-])c(OCC2CCCCC2)n1` [RD222], on αS aggregation (sheet S4B), the “αS band intensity, Total, Average” value is listed as 100; the “αS band intensity, Total” value was 97.5 and 99 and 103.5. Also, in assay [1], the “ThT intensity relative to Synuclein alone (=1), Average” value was 0.6644; the “ThT intensity relative to Synuclein alone (=1), Trial 1-3” value is 0.6754 and 0.635 and 0.6826.
Turning to `Cc1ccc(NC(=O)c2ccc([N+](=O)[O-])c(NCCc3ccc(O)cc3)n2)c(OCC(=O)O)n1` [NS160], at αS aggregation (sheet S5B), the “αS band intensity, Total, Average” value amounted to 100; the “αS band intensity, Total” value was 103.4 and 101 and 95.6. In addition, in assay [1], the “ThT intensity relative to Synuclein alone (=1), Average” value amounted to 0.7268; the “ThT intensity relative to Synuclein alone (=1), Trial 1-3” value is 0.8429 and 0.6915 and 0.6459. In addition, in assay [1] (sheet S5A), the “Relative ThT intensity of αS aggregation, Average” value was found to be 0.7268; the “Relative ThT intensity of αS aggregation” value was 0.8429 and 0.6915 and 0.6459.
On to `Cc1ccc(NC(=O)c2ccc(NC(=O)c3ccc([N+](=O)[O-])c(Cl)n3)c(NCC3CCCCC3)n2)c(OCC(=O)O)n1` [NS122], for which, at αS aggregation (sheet S7B), the “αS band intensity, Total, Average” value was determined as 100; the “αS band intensity, Total” value is 101.8 and 101.7 and 96.5. Also, in assay [1], the remaining activity at 100 µM was found to be 30%; the “ThT intensity (raw), individual trials” value is 5423 and 5518 and 5332. For the same molecule, in assay [1] (sheet S7A), the “Relative ThT intensity of αS aggregation, Average” value is 0.339; the “Relative ThT intensity of αS aggregation” value is 0.3017 and 0.3699 and 0.3455.
Consider `Cc1ccc(NC(=O)c2ccc([N+](=O)[O-])c(NCCc3c[nH]c4ccccc34)n2)c(OCC(=O)O)n1` [NS72], for which, in assay [1], the “ThT intensity relative to Synuclein alone (=1), Average” value is reported as 0.08383; the “ThT intensity relative to Synuclein alone (=1), Trial 1-3” value was 0.08532 and 0.05997 and 0.1062.
In the case of `Cc1ccc(NC(=O)c2ccc(NC(=O)c3ccc([N+](=O)[O-])c(NCC4CCCCC4)n3)c(NCC3CCCCC3)n2)c(OCC(=O)O)n1` [NS126], in assay [1], the “ThT intensity relative to Synuclein alone (=1), Average” value was found to be 0.4588; the “ThT intensity relative to Synuclein alone (=1), Trial 1-3” value was 0.4925 and 0.4832 and 0.4007; the remaining activity at 100 µM was determined as 45.9%.
